Literature values, collected in patent publication US6348502B1, “Formulations for the treatment of gastro-oesophageal reflux” (Reckitt & Colman Products Limited, priority 1998, dated 2002).

Experiments:
[1] = system: capsaicin-sensitive neurones; conditions: rats; stimulation of capsaicin-sensitive neurones
[2] = system: acetic-acid induced gastric ulcers
gastric acid secretion = conditions: rats
[3] = system: topical injury by noxious agents such as ethanol; conditions: white rabbits, administered at the gastro-oesophageal junction via cannulae

Compound: COc1cc(CNC(=O)CCCC/C=C/C(C)C)ccc1O [capsaicin, (E)-(N)-[(4-hydroxy-3-methoxphenyl)-methyl]-8-methyl-6-nonenamide]
- duodenal bicarbonate secretion [1]: increase duodenal bicarbonate secretion
- protection of the gastric mucosa against experimental injury ([2]; acetic-acid induced gastric ulceration in rats): protects the gastric mucosa against experimental injury
- healing of acetic-acid induced gastric ulcers ([2]; rats, introduced directly into an ex vivo chamber): promotes the healing
- healing of acetic-acid induced gastric ulcers after prior administration of cimetidine ([2]; rats, prior administration of cimetidine): blunted
- effect on gastric acid secretion (gastric acid secretion): no effect
- mucosal protection against topical injury [3]: provides mucosal protection
